Results taken from ChEMBL document CHEMBL4602703, “Lead Optimization of a Pyrrole-Based Dihydroorotate Dehydrogenase Inhibitor Series for the Treatment of Malaria” (J Med Chem, 2020).

What was measured:
[1] = tested on: Plasmodium falciparum; assay: microbe, parasite or virus in culture; settings: 3D7, 72 h
[2] = Intrinsic clearance in human liver microsomes assessed as per mg protein; format: ADME, Microsome
[3] = target: T1, Dihydroorotate dehydrogenase (quinone), mitochondrial (Homo sapiens, UniProt Q02127)
T1 sequence (Q02127 whole entry): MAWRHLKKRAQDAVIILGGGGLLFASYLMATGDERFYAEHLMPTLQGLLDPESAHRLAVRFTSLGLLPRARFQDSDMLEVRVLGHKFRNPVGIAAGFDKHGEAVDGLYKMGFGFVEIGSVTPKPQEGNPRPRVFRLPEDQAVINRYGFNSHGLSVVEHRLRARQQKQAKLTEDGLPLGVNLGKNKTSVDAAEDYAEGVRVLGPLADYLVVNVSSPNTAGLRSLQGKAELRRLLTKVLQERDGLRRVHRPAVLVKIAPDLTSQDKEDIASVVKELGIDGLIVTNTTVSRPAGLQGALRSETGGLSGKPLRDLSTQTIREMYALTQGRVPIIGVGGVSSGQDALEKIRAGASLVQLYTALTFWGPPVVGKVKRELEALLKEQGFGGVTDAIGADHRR

[4] = physchem; settings: octanol/water, pH 7.4
[5] = target: Albumin (Homo sapiens, UniProt P02768); assay: Binding affinity to albumin (unknown origin) by chromatographic method; format: ADME; settings: albumin, read-out: PB (converted)
Chain of Albumin (P02768 whole entry): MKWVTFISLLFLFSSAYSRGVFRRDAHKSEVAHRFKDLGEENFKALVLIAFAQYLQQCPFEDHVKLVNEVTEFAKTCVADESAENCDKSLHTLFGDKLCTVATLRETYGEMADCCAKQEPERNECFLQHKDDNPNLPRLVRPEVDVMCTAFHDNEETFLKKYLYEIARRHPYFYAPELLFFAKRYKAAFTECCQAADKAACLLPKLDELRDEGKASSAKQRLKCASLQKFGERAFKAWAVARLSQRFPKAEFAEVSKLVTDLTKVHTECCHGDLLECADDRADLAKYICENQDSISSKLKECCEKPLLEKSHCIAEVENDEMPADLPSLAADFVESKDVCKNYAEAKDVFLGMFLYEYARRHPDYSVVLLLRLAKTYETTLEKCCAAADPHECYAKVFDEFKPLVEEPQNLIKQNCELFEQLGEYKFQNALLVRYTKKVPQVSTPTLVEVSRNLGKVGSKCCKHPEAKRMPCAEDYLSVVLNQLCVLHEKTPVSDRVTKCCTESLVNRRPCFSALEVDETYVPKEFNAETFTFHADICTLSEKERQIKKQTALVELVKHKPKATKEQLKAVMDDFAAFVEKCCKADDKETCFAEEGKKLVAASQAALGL

[6] = Intrinsic clearance in mouse liver microsomes assessed as per mg protein; format: ADME, Microsome; settings: microsomes
[7] = Inhibition of N-terminal His6-tagged Plasmodium falciparum DHODH expressed in Escherichia coli BL21(DE3) cells using L-DHO as substrate by DCIP dye based assay
[8] = target: Dihydroorotate dehydrogenase (quinone), mitochondrial (Rattus norvegicus, UniProt Q63707)
Chain of Dihydroorotate dehydrogenase (quinone), mitochondrial (Rattus norvegicus, UniProt Q63707) (Q63707 whole entry): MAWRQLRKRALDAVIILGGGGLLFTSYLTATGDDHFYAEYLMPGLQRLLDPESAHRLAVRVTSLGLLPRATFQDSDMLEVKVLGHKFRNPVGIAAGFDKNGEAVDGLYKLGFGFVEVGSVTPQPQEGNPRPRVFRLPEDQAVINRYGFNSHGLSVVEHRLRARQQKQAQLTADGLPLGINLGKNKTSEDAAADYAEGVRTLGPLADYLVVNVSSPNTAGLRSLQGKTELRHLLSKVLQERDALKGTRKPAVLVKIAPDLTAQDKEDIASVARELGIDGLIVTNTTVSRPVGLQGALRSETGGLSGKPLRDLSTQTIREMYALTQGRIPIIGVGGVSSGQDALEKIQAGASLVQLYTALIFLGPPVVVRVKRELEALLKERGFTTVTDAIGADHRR

[9] = target: Dihydroorotate dehydrogenase (quinone), mitochondrial (Mus musculus, UniProt O35435)
Chain of Dihydroorotate dehydrogenase (quinone), mitochondrial (Mus musculus, UniProt O35435) (O35435 whole entry): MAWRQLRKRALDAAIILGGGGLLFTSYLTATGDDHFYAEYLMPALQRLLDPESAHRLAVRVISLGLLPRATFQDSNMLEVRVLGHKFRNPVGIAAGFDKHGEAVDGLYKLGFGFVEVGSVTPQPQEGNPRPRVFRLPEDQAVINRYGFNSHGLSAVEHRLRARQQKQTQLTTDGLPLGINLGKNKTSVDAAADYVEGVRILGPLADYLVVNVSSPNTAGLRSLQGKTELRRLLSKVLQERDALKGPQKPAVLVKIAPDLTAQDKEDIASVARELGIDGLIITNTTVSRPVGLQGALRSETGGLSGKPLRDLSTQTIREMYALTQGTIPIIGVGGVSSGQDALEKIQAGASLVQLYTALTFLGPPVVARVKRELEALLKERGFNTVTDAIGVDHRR

[10] = Inhibition of C-terminal His6-tagged Plasmodium falciparum DHODH expressed in Escherichia coli BL21(DE3) cells using L-DHO as substrate after 20 mins by 2,6-dichloroindophenol reduction based assay
[11] = target: T1, Dihydroorotate dehydrogenase (quinone), mitochondrial; assay: Inhibition of C-terminal His6-tagged human DHODH (30 to 396 residues) expressed in Escherichia coli BL21(DE3) cells using L-DHO as substrate after 20 mins by 2,6-dichloroindophenol reduction based assay
[12] = tested on: Plasmodium falciparum
[13] = tested on: Plasmodium falciparum; assay: animal or person
[14] = tested on: Plasmodium falciparum; assay: Antimalarial activity against Plasmodium falciparum 3D70087/N9 infected in NOD-SCID IL2Rgamma null mouse assessed as blood AUC level require to show 90% reduction in parasitemia administered administered once daily for 4 days; format: functional, organism-based
[15] = fAUC in Plasmodium falciparum 3D70087/N9 infected po dosed NOD-SCID IL2Rgamma null mouse blood administered once daily for 4 days; format: ADME, organism-based; settings: in vivo, 96 h

SMILES	EC50 [1] [nM]	microsomal CLint [2] [µL/min/mg]	IC50 [3] [nM]	logD [4]	fraction unbound [5]	microsomal CLint [6] [µL/min/mg]	IC50 [7] [nM]	other results
Cc1c(Cc2cnc(C(F)(F)F)nc2)c[nH]c1C(=O)NC1CC1	390	< 7	> 100000	2.5	–	–	–	–
Cc1[nH]c(C(=O)NC2CC2)c(C)c1Cc1ccc(C(F)(F)F)nc1	36	15	> 100000	3	0.172	33	–	–
Cc1[nH]c(C(=O)NC2CC2)c(C)c1C(=O)c1ccc(C(F)(F)F)cn1	10000 to 20000	8	–	2.4	0.496	24	> 100000	–
Cc1[nH]c(C(=O)NC2CC2)c(C)c1Oc1ccc(C(F)(F)F)nc1	290	8	> 100000	1.7	0.573	22	800	–
Cc1c(Cc2ccc(C(F)(F)F)cc2F)c[nH]c1C(=O)NC1CC1	16	15	> 100000	3.8	0.03	184	44	–
CCCNC(=O)c1[nH]c(C)c(Cc2ccc(C(F)(F)F)nc2)c1C	47	172	> 100000	3.2	0.155	64	72	–
Cc1[nH]c(C(=O)N2CCCCC2)cc1Cc1ccc(C(F)(F)F)nc1	> 20000	173	–	3.5	0.125	93	> 100000	–
Cc1c(Cc2ccc(C(F)(F)F)nc2)c[nH]c1C(=O)N1CCC1	82	< 7	> 100000	2.7	0.341	192	170	–
CCOC(=O)c1[nH]c(C)c(Cc2ccc(OC)cc2)c1C	590	–	> 100000	–	–	–	520	IC50 [8]: > 100000 nM; IC50 [9]: > 100000 nM
Cc1c(Cc2ccc(C(F)(F)F)cc2Cl)c[nH]c1C(=O)NC1CC1	20	14	> 100000	4.1	0.019	264	17	–
Cc1[nH]c(C(=O)N2CCCC2)cc1Cc1ccc(C(F)(F)F)nc1	> 10000	226	–	3.2	0.185	138	> 100000	–
Cc1[nH]c(C(=O)NC2CC2)cc1Cc1cnc(C(F)(F)F)nc1	> 10000	< 7	–	2.5	0.555	8	> 100000	–
Cc1c(Cc2ccc(C(F)(F)F)nc2)c[nH]c1C(=O)N1CC(F)(F)C1	29	21	> 100000	3.3	0.251	94	33	IC50 [8]: > 100000 nM; IC50 [9]: > 100000 nM
Cc1nc2cc(OC(F)(F)F)ccc2n1-c1ccc(C(=O)NC2CC2)s1	7	–	–	–	–	–	–	IC50 [10]: 22 nM; IC50 [11]: > 30000 nM
O=C(NC1CC1)c1cc(Cc2ccc(C(F)(F)F)nc2)c[nH]1	500 to 1700	31	> 100000	2.6	0.333	96	2500	–
Cc1[nH]c(C(=O)NC2CC2)cc1Cc1ccc(C(F)(F)F)nc1	3600	36	> 100000	2.8	0.274	41	10000	–
CCOC(=O)c1[nH]c(C)c(Cc2ccc(OCC)cc2)c1C	230 to 250	188	> 100000	4.5	–	470	–	–
Cc1[nH]c(C(=O)N2CCC2)c(C)c1Cc1ccc(C(F)(F)F)nc1	130	31	–	2.9	0.228	53	140	–
Cc1c(C(O)c2ccc(C(F)(F)F)nc2)c[nH]c1C(=O)NC1CC1 (racemic)	44	20	> 100000	3.2	0.105	40	74	–

SMILES	EC50 [1] [nM]	microsomal CLint [2] [µL/min/mg]	IC50 [3] [nM]	logD [4]	fraction unbound [5]	microsomal CLint [6] [µL/min/mg]	IC50 [7] [nM]	other results
Cc1cc(Nc2ccc(C(F)(F)F)nc2)n2nc(C(C)(F)F)nc2n1	–	–	–	–	–	–	–	fEC50 [12]: 0.007 µM; EC50 ([13]; 3D70087/N9, 96 h): 14 nM; ED90 ([13]; 3D70087/N9, in Mus musculus, po, 96 h): 2.6 mg/kg/day; AUCED90 [14]: 12.9 µg·h/mL; fAUC [15]: 250 ng·h/mL
CCOC(=O)c1[nH]c(C)c(Cc2cc(OC)cc(OC)c2)c1C	10000	–	> 100000	–	–	–	2300	–
CCOC(=O)c1[nH]c(C)c(Cc2ccc(C(F)(F)F)nc2)c1C	9.2	286	> 100000	3.7	0.064	779	–	IC50 [8]: > 100000 nM; IC50 [9]: > 100000 nM
CCOC(=O)c1[nH]c(C)c(Cc2ccc(C(F)(F)F)cn2)c1C	100	–	> 100000	–	–	–	300	–
CCCNC(=O)c1[nH]c(C)c(Cc2ccc(C(F)(F)F)cc2)c1C	110	–	> 100000	–	–	–	300	–
Cc1[nH]c(C(=O)N2CCC2)c(C)c1Cc1ccc(C(F)(F)F)cn1	1000	–	> 100000	–	–	–	1800	–
CCCC(=O)c1[nH]cc(Cc2ccc(C(F)(F)F)nc2)c1C	65	–	> 100000	–	–	–	98	–
CCOC(=O)c1[nH]c(C)c(Cc2ccc(C(C)C)cc2)c1C	470	–	> 100000	–	–	–	570	–
COCc1c(Cc2ccc(C(F)(F)F)nc2)c[nH]c1C(=O)NC1CC1	240	–	> 100000	–	–	–	450	–
Cc1c(Cc2ccc(C(F)(F)F)nc2)c[nH]c1C(=O)NC1CCC1	27	29	> 100000	3.2	0.165	204	44	–
Cc1c(Cc2ccc(C(F)(F)F)nc2)c[nH]c1C(=O)NCC(F)(F)F	44 to 59	15	> 100000	3.3	0.181	57	210	–
Cc1c(Cc2ccc(C(F)(F)F)cc2)c[nH]c1C(=O)NC1CC1	18	19	> 100000	3.7	0.029	173	48	–
Cc1c(Cc2cccnc2)c[nH]c1C(=O)NC1CC1	> 10000	19	–	–	0.268	138	> 100000	–
CCNC(=O)c1[nH]c(C)c(Cc2ccc(C(F)(F)F)nc2)c1C	33	70	> 100000	2.8	0.229	54	54	–
CCNC(=O)c1[nH]c(C)c(Cc2ccc(C(F)(F)F)cc2)c1C	51	–	> 100000	–	–	–	140	–
Cc1[nH]c(C(=O)NC2CCC2)c(C)c1Cc1ccc(C(F)(F)F)nc1	66	–	> 100000	–	–	–	42 to 72	–
Cc1c(Cc2ccc(C(F)(F)F)nc2)c[nH]c1C(=O)N1CC(F)C1	51	7	> 100000	–	–	145	120	–
CCOC(=O)c1[nH]c(C)c(Cc2ccc(C(F)(F)F)cc2)c1C	61 to 71	–	> 100000	–	–	–	–	IC50 [8]: > 100000 nM; IC50 [9]: > 100000 nM
CCCCNC(=O)c1[nH]c(C)c(Cc2ccc(C(F)(F)F)cc2)c1C	710	–	> 100000	–	–	–	9900	–
